Measurements reported in PMC12291851, “Hydrogen Sulfide (H2S)-Donating Formyl Peptide Receptor 2 (FPR2) Agonists: Design, Synthesis, and Biological Evaluation in Primary Mouse Microglia Culture” (Antioxidants, 2025).

Columns and labels:
IL-18 = IL-18 ELISA in medium of microglial cultures; format: cell-based, mouse; conditions: 1 μM pretreatment 1 h, then LPS 0.1 μg/mL 24 h
Protocol: Primary microglial cell cultures were derived from the cortices of 1–2-day-old mouse pups (1pup/1 brain/1 flask). After decapitation, the brains were extracted and immediately placed in cold Hanks’ Balanced Salt Solution (HBSS, Gibco, New York, NY, USA) on ice. The brains were washed at least three times with 7 mL of HBSS and then transferred to 10 mL of fresh culture media consisting of Dulbecco’s Modified Eagle Medium (DMEM) with GlutaMax and high glucose (4.5 g/L) (Gibco, New York, NY, USA) on ice. The tissue was minced and incubated in HBSS containing glucose, bovine serum albumin (BSA; Sigma-Aldrich, St. Louis, MO, USA), and HEPES (Gibco, New York, NY, USA) with 0.025% trypsin at 37 °C for 20 min. […] The purity of microglial cell cultures was assessed as we have shown previously. […]
To assess the effect of test compounds on IL-18, IL-6, and IL-10 levels, the medium of microglial cell cultures was collected 24 h after LPS treatment. The protein levels of the cytokines IL-18 (Mouse interleukin 18 ELISA kit), IL-6 (Mouse interleukin 6 ELISA kit), and IL-10 (Mouse interleukin 10 ELISA kit; all obtained from FineTest, Wuhan, China) were measured using commercially available enzyme-linked immunosorbent assay kits according to the manufacturer’s instructions. […]

HepG2 cells = test: Intracellular H2S release with WSP-1 probe; format: cell-based, human; conditions: for intracellular H2S release, WSP-1 fluorescence signal vs vehicle: HepG2, tested concentrations 100-300 μM, 60 min
Protocol: All cell culture reagents were purchased from S.I.A.L. S.r.l. (Rome, Italy). WSP-1 (Washington State Probe-1, 3′-methoxy-3-oxo-3H-spiro[isobenzofuran-1,9′-xanthen]-6′-yl 2-(pyridine-2-yl-disulfanyl benzoate), was obtained from Cayman Chemical (Cayman, Ann Arbor, MI, USA). HepG2, human hepatocellular carcinoma cells, was obtained from American Type Culture Collection (ATCC, Bethesda, MD, USA). Human hepatocellular carcinoma cells (HepG2) were cultured in Minimum Essential Eagle’s Medium. This medium was supplemented with 10% (v/v) Fetal Bovine Serum, 1% (v/v) Glutamine and 1% (v/v) Penicillin-Streptomycin, 1% non-essential amino acids. Cells were cultivated at 37 °C with 5% CO2 at saturated humidity.
These experiments were carried out as already described. HepG2 cells were cultured up to about 90% confluence, and 24 h before the experiment cells were seeded into a 96-well flat bottom black plate (50,000 cells per well). After 24 h, the medium was replaced and cells were incubated at 37 °C for 30 min with a 10 mM solution of the fluorescent WSP-1 probe, which is highly sensitive for H2S detection. After incubation, the supernatant was removed and replaced with different concentrations (100, 200, and 300 µM) of the tested compounds dissolved in HBSS buffer. […] ADT 100 µM was used as a slow H2S-donor reference compound. Data were analyzed by one-way ANOVA for repeated measures, followed by post hoc Bonferroni’s multiple comparison test. Results are expressed as mean ± SEM of 3 independent experiments in triplicate. Statistical significance was accepted at a level of p < 0.05.
Next, we assessed the intracellular H2S release of thioureas and thioamides in HepG2 cells. The compounds were tested at different concentrations (100–300 μM) to evaluate if the release was dose-dependent. We also assayed ADT-OH and TIA as reference H2S-donors, and 3a as a negative control. The results were normalized to the fluorescence signal obtained with 100 μM ADT-OH.

FPR2 = target: T1, FPR2 (Homo sapiens, UniProt P25090); test: Ca2+ mobilization (agonist activity) in FPR2-HL60 cells; conditions: for Ca2+ Mobilization HL60-FPR2 Efficacy: response to 5 nM WKYMVM = 100%
T1 sequence (P25090 1-351): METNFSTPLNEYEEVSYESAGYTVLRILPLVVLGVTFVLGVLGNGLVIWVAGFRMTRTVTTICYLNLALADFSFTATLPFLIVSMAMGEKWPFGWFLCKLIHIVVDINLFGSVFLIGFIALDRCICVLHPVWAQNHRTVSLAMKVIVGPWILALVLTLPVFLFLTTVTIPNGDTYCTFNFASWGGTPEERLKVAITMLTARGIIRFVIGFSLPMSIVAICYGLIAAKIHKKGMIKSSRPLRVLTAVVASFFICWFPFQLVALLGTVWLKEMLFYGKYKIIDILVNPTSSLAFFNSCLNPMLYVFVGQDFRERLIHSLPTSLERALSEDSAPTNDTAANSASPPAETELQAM

| SMILES | LPS-induced increase of IL-18 level (IL-18) | intracellular level of H2S vs reference H2S donor ADT (HepG2 cells; HepG2, at 200 and 300 μM, p < 0.001 vs. ADT) | intracellular H2S release, WSP-1 fluorescence signal vs vehicle (HepG2 cells) | levels of H2S release in HepG2 cells (HepG2 cells; summary of WSP-1 results) | fold less potent at FPR2 than the corresponding urea/amide (FPR2; ratio of FPR2 EC50 vs 3b, 3c or 4b) | Ca2+ Mobilization HL60-FPR2 Efficacy (FPR2) |
| --- | --- | --- | --- | --- | --- | --- |
| N#Cc1ccc(C[C@H](NC(=O)Nc2ccc(F)cc2)C(=S)N2CCc3ccccc32)cc1 [7b, (S)-1-[3-(4-Cyanophenyl)-1-(indolin-1-yl)-1-thioxopropan-2-yl]-3-(4-fluorophenyl)urea] | able to counterbalance the LPS-induced increase | more than the reference H2S donor ADT | significant fluorescence signal increase at all tested concentrations | very high levels of H2S release | 23 fold | 170% |
| N#Cc1ccc(C[C@H](NC(=O)Nc2ccc(Br)cc2)C(=S)N2CCc3ccccc32)cc1 [8b, (S)-1-(4-Bromophenyl)-3-[3-(4-cyanophenyl)-1-(indolin-1-yl)-1-thioxopropan-2-yl]urea] | able to counterbalance the LPS-induced increase |  | not statistically significant |  |  | 150% |
